Read-outs that look alike come from different tables or passages of the source.
Key:
Circulating cfDNA = conditions: day 35; regimen per Table 3 (rhDNaseI protein 50 mg/kg, Group 6)
Description: SYBR® Gold Nucleic Acid Gel Stain (Invitrogen) was diluted first at 1:1000 in dimethyl sulphoxide and then at 1:8 in phosphate-buffered saline. 10 μl of plasma samples were applied to 96-well plates. 40 μl of diluted SYBR® Gold was added to each well (final dilution 1:10,000) and fluorescence was measured with a 96 well fluorometer at an emission wavelength of 535 nm and an excitation wavelength of 485 nm.

[1] = Serum DNase I activity (ORG590), MIA PaCa-2 model; assay type: in vivo, BALB/c nude mice; conditions: day 35, regimen per Table 3 (rhDNaseI protein 50 mg/kg, Group 6)
Description: Serum DNase I activity was measured using ORG590 (Orgentec) according to the manufacturer's protocol. Detection was performed using microplate photometer (Multiscan FC) at 450 nm with a correction wavelength of 620 nm. cfDNA in the liver tissue was quantified by immunohistochemistry (IHC) in liver paraffin slides using AC-30-10 mouse IgG DNA binding antibodies (Sigma) as primary antibodies and Novolink Polymer Detection Systems Novocastra (Leica Biosystems).

MIA PaCa-2 xenografts = conditions: vector 1.00 × 10^11 GC/kg IV single dose (Groups 2, 3), Gemcitabine 60 mg/kg IP BIW
Description: 56 female BALB/c nude mice (IBCH RAN) of 6-8 weeks age and 18-22 g weight were used in experiment. The mice were kept in individual ventilation cages at controlled temperature and humidity with four animals in each cage. Each mouse was inoculated subcutaneously at the right flank with MIA PaCa-2 pancreatic tumor cells (1×10^7) in 0.2 ml of PBS supplemented with BD Matrigel (1:1) for tumor development. The treatments were started on day 17 after tumor inoculation when the average tumor size reached approximately 170 mm^3. Each group consisted of eight tumor-bearing mice.
Tumor size was measured twice weekly in two dimensions using a caliper, and the volume was expressed in mm^3 using the formula: V=0.5 a×b^2 where a and b are the long and short diameters of the tumor, respectively. At the time of routine monitoring, the animals were checked daily for any effects of tumor growth and treatments on normal behavior such as mobility, food and water consumption by visual inspection only, loss or gain of body weight (measured twice weekly), eye/hair matting, and any other abnormal effects. On day 35, the study was terminated, the mice were humanely sacrificed by CO2, and blood was sampled from the central and hepatic veins. Liver tissues were also sampled and immersed into formalin for fixing.

[2] = test system: cfDNA in the liver tissue; assay: cfDNA in liver tissue by immunohistochemistry, MIA PaCa-2 model; assay type: in vivo, BALB/c nude mice; conditions: day 35; vector given with gemcitabine (Group 2); gemcitabine alone (Group 7)
Description: Detection was performed using microplate photometer (Multiscan FC) at 450 nm with a correction wavelength of 620 nm. cfDNA in the liver tissue was quantified by immunohistochemistry (IHC) in liver paraffin slides using AC-30-10 mouse IgG DNA binding antibodies (Sigma) as primary antibodies and Novolink Polymer Detection Systems Novocastra (Leica Biosystems).

[3] = test system: lung carcinoma and hepatoma metastatic disease; conditions: administered daily at 0.02-2.3 mg/kg; cited from earlier work
NLRP3 = assay: Brain NLRP3 inflammasome expression by RT-PCR, leaky gut rats; conditions: twice daily IV 50 mg/kg day 7 to day 12
Description: Leaky gut was induced in 24 rats using a bacteriophage cocktail against Enterobacteriaceae, Staphylococcaceae, and Streptococcaceae families so as to induce microbiota diseases. […] Phages (1.5 mL, 1×10^6 plaque-forming units/mL of each phage cocktail) were added to drinking water according to the manufacturer's instruction and administered orally for 10 days. At day 7 of phage treatment, rats were randomized into 4 groups as follows: six rats received intrahepatic injection of 1.0×10^12 LVP in a volume of 200 μl; six rats received injection of 1.0×10^12 LVP in a volume of 200 μl into a thigh muscle; six rats received twice daily intravenous injections of recombinant DNase I protein at 50 mg/kg between day 7 and day 12. The remaining six rats were used as the untreated leaky gut control. An additional six healthy rats were used as a healthy control. […] Brain autopsies were collected to perform NLRP3 inflammasome expression analysis and 16S universal bacterial RNA gene quantification.
NLRP3 expression was assessed by collection of 50 mg cortical tissue samples. RNA was isolated using the SV total RNA isolation system (Promega). Superscript III one-step RT-PCR system with platinum Taq DNA Polymerase (Invitrogen) was used for reverse transcriptase-PCR using 5′-[sequence]-3′ (SEQ ID NO: 11) as forward NLRP3 primer and 5′-[sequence]-3′ (SEQ ID NO: 12) as reverse NLRP3 primer. […]

[4] = DNase activity in blood, bacteriophage-induced leaky gut rats; assay type: in vivo, Wistar rats; conditions: twice daily IV 50 mg/kg day 7 to day 12
Description: At day 7 of phage treatment, rats were randomized into 4 groups as follows: six rats received intrahepatic injection of 1.0×10^12 LVP in a volume of 200 μl; six rats received injection of 1.0×10^12 LVP in a volume of 200 μl into a thigh muscle; six rats received twice daily intravenous injections of recombinant DNase I protein at 50 mg/kg between day 7 and day 12. The remaining six rats were used as the untreated leaky gut control. An additional six healthy rats were used as a healthy control. At day 12, all rats were sacrificed and blood samples were collected for measurement of the DNase activity in blood.
Serum DNase I activity was measured using ORG590 (Orgentec) according to the manufacturer's protocol. Detection was performed using microplate photometer (Multiscan FC) at 450 nm with a correction wavelength of 620 nm.

[5] = test system: 16S universal bacterial RNA gene; assay: 16S universal bacterial RNA gene quantification in liver and brain, leaky gut rats; assay type: in vivo, Wistar rats; conditions: twice daily IV 50 mg/kg day 7 to day 12
GVHD = conditions: mouse, in vivo; cited from earlier work

**Q.** What does the source list for Nc1ccn([C@@H]2O[C@H](CO)[C@@H](O)C2(F)F)c(=O)n1 [Gemcitabine]?
**A.** Cell free DNA in blood (Circulating cfDNA): 241 ± 11 ng/mL; Dnase activity in blood ([1]; central vein): 1.15 mKuU/ml; DNase activity in hepatic vein [1]: 1.05 mKuU/ml; mean tumor volume (MIA PaCa-2 xenografts; Day 17): 170 ± 13 mm^3; mean tumor volume (MIA PaCa-2 xenografts; Day 21): 164 ± 14 mm^3; mean tumor volume (MIA PaCa-2 xenografts; Day 24): 197 ± 17 mm^3; mean tumor volume (MIA PaCa-2 xenografts; Day 28): 246 ± 10 mm^3; mean tumor volume (MIA PaCa-2 xenografts; Day 31): 220 ± 8 mm^3; mean tumor volume (MIA PaCa-2 xenografts; Day 35): 264 ± 14 mm^3; cfDNA in the liver (IHC microphotographs, FIG. 4) [2]: A large amount of cfDNA

B1: RhDNase I: recombinant human DNase I in Patutina, 2011 (protein, UniProt P24855 23-282, looked up)
Deoxyribonuclease-1: LKIAAFNIQTFGETKMSNATLVSYIVQILSRYDIALVQEVRDSHLTAVGKLLDNLNQDAPDTYHYVVSEPLGRNSYKERYLFVYRPDQVSAVDSYYYDDGCEPCGNDTFNREPAIVRFFSRFTEVREFAIVPLHAAPGDAVAEIDALYDVYLDVQEKWGLEDVMLMGDFNAGCSYVRPSQWSSIRLWTSPTFQWLIPDSADTTATPTHCAYDRIVVAGMLLRGAVVPDSALPFNFQAAYGLSDQLAQAISDHYPVEVMLK
**Q.** Which “suppressed the development of metastatic disease” value [3] does the source give for B1 here?
**A.** 60-90%

B2: DNase I protein (wt): recombinant wild-type DNase I protein injected IV in Example 7 (protein, UniProt P24855 23-282, looked up)
Deoxyribonuclease-1: B1 Deoxyribonuclease-1
**Q.** With B2 as the molecule, how does the “Average ΔCt values for brain NLRP3 from RT-PCR” value (NLRP3) read?
**A.** 17.341

**Q.** And the “Dnase activity in blood” value [4]?
**A.** 7.15 mKuU/ml

**Q.** What about the “Average ΔCt values for universal bacterial 16S from RT-PCR, brain” value [5] of the same molecule?
**A.** 27.417

**Q.** What about the “Average ΔCt values for universal bacterial 16S from RT-PCR, liver” value [5] of the same molecule?
**A.** 25.752

B3: DNaseI: DNaseI used to treat GVHD in mice (Li, 2015) (protein, UniProt P24855 23-282, looked up)
Deoxyribonuclease-1: B1 Deoxyribonuclease-1
**Q.** With B3 as the molecule, how does the “treatment of GVHD in mice” value (GVHD) read?
**A.** successful use

— US11905522B2, “Treatment of diseases by liver expression of an enzyme which has a deoxyribonuclease (DNase) activity” (CLS THERAPEUTICS LIMITED, priority 2018, dated 2024)
